Measurements from PubChem BioAssay (NCI).
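Each compound was tested at five concentrations against cells in 96-well plates for 48 hours. Abbreviation: GI50, concentration required for 50% inhibition of growth. TGI is the concentration that stops growth completely.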

Assays:
Assay in all cases: inhibition of tumour cell growth, NCI panel, 48 h
MDA-MB-231 breast = tested on: MDA-MB-231 breast
786-0 renal = tested on: 786-0 renal
NCI/ADR-RES ovarian = tested on: NCI/ADR-RES ovarian
HCC-2998 colon = tested on: HCC-2998 colon
SK-MEL-2 melanoma = tested on: SK-MEL-2 melanoma
MALME-3M melanoma = tested on: MALME-3M melanoma
RXF 393 renal = tested on: RXF 393 renal
UO-31 renal = tested on: UO-31 renal
MDA-N = tested on: MDA-N
SR leukemia = tested on: SR leukemia

| Structure (SMILES) | TGI (MDA-MB-231 breast) [µM] | TGI (786-0 renal) [µM] | TGI (NCI/ADR-RES ovarian) [µM] | TGI (HCC-2998 colon) [µM] | TGI (SK-MEL-2 melanoma) [µM] | TGI (MALME-3M melanoma) [µM] | TGI (RXF 393 renal) [µM] | TGI (UO-31 renal) [µM] | GI50 (MDA-MB-231 breast) [µM] | GI50 (NCI/ADR-RES ovarian) [µM] | GI50 (HCC-2998 colon) [µM] | TGI (MDA-N) [µM] | GI50 (MALME-3M melanoma) [µM] | GI50 (RXF 393 renal) [µM] | GI50 (UO-31 renal) [µM] | GI50 (SR leukemia) [µM] | TGI (SR leukemia) [µM] |
| --- | --- | --- | --- | --- | --- | --- | --- | --- | --- | --- | --- | --- | --- | --- | --- | --- | --- |
| Cc1sc2nc(-c3cc([N+](=O)[O-])c(Cl)cc3Cl)c(/C=N/N=C(N)N)n2c1C | 34.6 | > 100 | > 100 | 5.39 | 5.78 | 39.3 | 20.6 | 26.4 | – | – | – | – | – | – | – | – | – |
| CC(C)=CC(=O)O[C@H]1C(=O)O[C@@H]2C[C@H]3[C@H](C)C(=O)C(O[C@@H]4O[C@H](CO)[C@@H](O)[C@H](O)[C@H]4O)=C[C@]3(C)[C@H]3[C@@H](O)[C@H](O)[C@]4(C(=O)O)OC[C@]32[C@@H]14 | > 100 | > 100 | > 100 | 57.5 | – | 61.1 | 73.1 | > 100 | > 100 | > 100 | 24.7 | > 100 | 24.2 | 25.4 | 31.3 | 31.2 | > 100 |
| Cc1nc2c(n1C(C)(C)C)C(=O)c1ccccc1C2=O | – | > 100 | – | > 100 | > 100 | > 100 | > 100 | > 100 | – | – | – | – | – | – | – | – | > 100 |
| Cc1ccnc2[nH]c(-c3cccc(Cl)c3)cc(=O)c12 | 0.0861 | > 100 | > 100 | > 43 | > 100 | – | > 100 | > 70.2 | – | – | – | – | – | – | – | – | > 100 |
| FC(F)(F)c1ccccc1N1CCN(c2nc(-c3cccs3)nc3ccc(Br)cc23)CC1 | 74 | > 100 | > 100 | 25 | 74.1 | 55.9 | – | > 100 | – | – | – | – | – | – | – | – | > 100 |
| C1CSCCCSCCSCCCSC1 | > 100 | > 100 | – | > 100 | > 100 | – | > 100 | > 100 | – | – | – | > 100 | – | – | – | – | – |
| O=C(/C=C/c1cccc(Br)c1)c1cccs1 | 38.8 | 31.4 | 56.9 | 61.3 | 44.1 | 41.6 | – | 25.7 | – | – | – | 22.3 | – | – | – | – | > 100 |
| COc1ccccc1-c1cc(=O)c2ccccc2[nH]1 | – | > 100 | – | > 100 | – | > 100 | > 100 | > 100 | – | – | – | – | – | – | – | – | > 100 |
| CN1C(=S)C(c2ccccc2)Sc2ccccc21 (stereo not given) | > 100 | > 100 | > 100 | – | – | > 100 | > 100 | > 100 | – | – | – | > 100 | – | – | – | – | > 100 |
| NCCCn1c2ccccc2c2c3c(c4c(c21)CCC(O)CC4)C(=O)NC3=O (stereo not given) | 14.4 | 16.8 | 32.9 | 4.24 | 24.1 | 15.8 | 13.6 | 19.9 | – | – | – | – | – | – | – | – | 5.15 |
| O=C(CN1CCN(Cc2ccccc2)CC1)N1CCCn2c1nc1ccccc1c2=O | > 100 | > 100 | > 100 | > 100 | > 100 | > 100 | – | > 100 | – | – | – | > 100 | – | – | – | – | > 100 |
